Data on 21 compounds can be found in patent US5808109A, “Compounds that inhibit complement and/or suppress immune activity” (T Cell Sciences, Inc., priority 1995, dated 1998).

Structures can show the parent of a compound that is named as a salt. Where two headings read alike, the source gives them in different places.

The test system of experiment [1] is human complement. The experiment is described as follows: Inhibition of complement-mediated hemolysis, human serum, sensitized sheep erythrocytes. Format: biochemical. The method, then:
The ability to inhibit complement was also tested by assaying for inhibition of complement-mediated red cell lysis (hemolysis). The inhibition of hemolysis was determined as a function of compound concentration. The compounds to be tested were diluted in 0.1M Hepes buffer (0.15N NaCl, pH 7.4), and 50 μl were added to each well of a V-bottom microtiter plate. Human serum, used as the complement source, was diluted 1 to 500 in Hepes buffer, and 50 μl were added to each well. Next, commercially available sheep erythrocytes with anti-sheep antibody (Diamedix Cat. No. 789-001) were used as received and added at 100 μl/well to initiate the complement pathway leading to hemolysis. The plate was incubated for 60 minutes at 37° C. and then centrifuged at 500×g for 10 minutes. The supernatants were removed and placed in a flat-bottom microtiter plate. The extent of hemolysis was measured as a function of the sample absorbance at 410 nm. The maximal absorbance (corresponding to maximal hemolysis), Amax, was obtained from the absorbance value of an erythrocyte sample containing only human serum, AS, less the absorbance of a sample containing only the red cells, A0. Thus, Amax =AS -A0. The difference between the absorbance of an erythrocyte sample containing both human serum and inhibitive compound, and the absorbance of a cell sample containing inhibitive compound only, was defined as Asample. The inhibition, IH, was expressed as the fraction (Amax -Asample)/Amax, and IH50 was defined as the concentration of inhibitive compound required to produce a value of IH=1/2.
The 4 substituted spirobenzofuran compounds of example 7 and the disubstituted spirobenzofuran compounds of example 8 were tested for their capacity to inhibit complement-mediated lysis of sheep red blood cells (SRBC) as described in Section 6.6.2 supra with the modification that the human serum used as the complement source was diluted to 1 to 100 in Hepes buffer, instead of […]. The results of the hemolysis assays are shown in FIG. 8 and Tables XI and XII.

Experiment [2] relates to C5a production. Nature of the experiment: Inhibition of C5a production in human serum (aggregated IgG, RIA). Format: biochemical. The settings on record: concentration inhibiting C5a production 50% relative to control. How it is done:
(§1) The ability to inhibit complement was tested by assaying for specific inhibition of C3a and C5a production. For all experiments, a single human serum pool, to be used as a source of complement, was aliquoted and stored frozen at -70° C. Human IgG was heat-aggregated, aliquoted, and stored frozen at -70° C. For each experiment, serum aliquots were equilibrated at 37° C. with varying concentrations of the compounds tested. The classical complement pathway was initiated by the addition of aggregated human IgG. Control samples containing no IgG were always included. After a fixed reaction time of 10 minutes (determined in an earlier time-course study to provide a convenient time interval during which the production of C5a or C3a is nearly complete, i.e., greater than 90%), the levels of the released complement peptides (C5a or C3a) were determined by radioimmunoassay using commercially available radioimmunoassay (RIA) kits (C5a RIA, UpJohn Cat. No. 3250-02; C3a RIA, UpJohn Cat. No. 3245-01; C5a RIA, Amersham Cat. No. RPA.520; C3a RIA, Amersham RPA.518).
(§2) Since a competitive immunoassay was used, complement peptide (C5a and C3a) concentrations varied inversely with the counts. The Counts Bound (CB) for a sample was defined as the total counts (in counts per minute, cpm) measured in the pellet minus the counts measured in a nonspecific binding (NSB) control. The NSB control was a sample containing only tracer peptide (^125 I-labelled) and second precipitating antiserum; it contained no C5a- or C3a-specific antiserum.
(§3) The y-axis in FIG. 2 represents the fraction inhibition. The fraction inhibition is equal to the Counts Bound (CB) for a "sample," less the CB in the "sample with no added compound," divided by the CB for the "no IgG control" less the CB in the "sample with no added compound." [formula]
(§4) FIG. 2 is representative of the data plots obtained from the assays described above.

Experiment [3] relates to C3a production. The experiment is described as follows: Inhibition of C3a production in human serum (aggregated IgG, RIA). The settings on record: human serum, concentration inhibiting C3a production 50% relative to control. The experiment is classed as biochemical. How it is done:
as §1, §2, §3, §4

Experiment [4] deals with human peripheral blood lymphocytes (PBL). The experiment is described as follows: Inhibition of proliferation of peripheral blood lymphocytes, 3H-thymidine incorporation. The experiment is classed as cell-based. The following applies: Lymphocyte, Table IX, 72 h. The method, then: The proliferation of human peripheral blood lymphocytes (PBL) in response to phytohemagglutinin (PHA, Well-come) or anti-CD3 monoclonal antibody (OKT-3, Ortho) was assessed by the incorporation of ^3 H-thymidine. Compound 11a was diluted in culture media to the desired concentrations, human PBL were added to a final concentration of 10^6 cells/ml, and then either PHA (Wellcome) or anti-CD3 (OKT3, Ortho) antibody (final concentration, […]) was added to initiate proliferation. The final volume per sample was 100 μl. The cells were incubated for 72 hours after stimulation, pulsed with 1 μCi ^3 H-thymidine per sample for 4 hours, harvested, and counted in a scintillation counter. […] Because cell viability was unaffected by the presence of 11a (see supra), the inhibition apparently was not due to cytotoxic effects.

Where [5] appears, read: Table VII, human serum, read-out: IHO50.
Where [6] appears, read: PHA stimulation, read-out: IP50 PHA-stimulated PBL.
Where [7] appears, read: anti-CD3 (OKT-3) stimulation, read-out: IP50 OKT-3-stimulated PBL.
Setting [8] is: Table XII, human serum diluted 1 to 100, read-out: IH50 Mean.
Setting [9] is: Table XI, human serum diluted 1 to 100, read-out: IH50 Mean.

For the compound `COc1ccc(C(=O)O)c2c1CC(C)(C1CC=C(C)CC1)O2` (single isomer, unassigned; (+)) [(+)-20a], the IC50 in experiment [1] (setting [5]) was 680 µM; in experiment [2], 8000 µM; in experiment [3], over 14000 µM; in experiment [4] (setting [6]) it was 2100 µM; in experiment [4] (setting [7]), 1700 µM.
In the case of `CC1=CCC(C2(C)Cc3c(O)ccc(C(=O)O)c3O2)CC1` (single isomer, unassigned; (+)) [(+)-23a], the IC50 is 2100 µM in experiment [1] (setting [5]), over 14000 µM in experiment [2] and over 14000 µM in experiment [3].
As to `COc1ccc(C(=O)O)c2c1CC(C)(C1CC=C(C)CC1)O2` (single isomer, unassigned; (-)) [(-)-20a], the IC50 in experiment [1] (setting [5]) worked out at 380 µM; in experiment [2] it was 6000 µM; in experiment [3] it was 11000 µM.
Turning to `CC1=CCC(C2(C)Cc3c(O)ccc(C(=O)O)c3O2)CC1` (single isomer, unassigned; (-)) [(-)-23a], the IC50 in experiment [1] (setting [5]) worked out at 2400 µM; in experiment [4] (setting [6]), 2800 µM; in experiment [4] (setting [7]), 2000 µM.
As to `COc1ccc(C(=O)O)c(O)c1CC1=CCCCC1` [Compound 12a, 3-(1'-CYCLOHEXENYL)METHYL-2-HYDROXY-4-METHOXYBENZOIC ACID], the IC50 in experiment [1] (setting [5]) came to 2100 µM; in experiment [2] it was 8000 µM; in experiment [3], 13000 µM.
As to `COc1ccc(C=O)c(O)c1CC1=CCCCC1` [Compound 12b, 3-(1'-CYCLOHEXENYL)METHYL-2-HYDROXY-4-METHOXYBENZALDEHYDE], the IC50 is 9000 µM in experiment [2] and 18000 µM in experiment [3].
Take `O=C(O)c1ccc(O)c2c1OC1(CCCCC1)C2` [Compound 14a]: the IC50 in experiment [1] (setting [5]) was 3000 µM.
Take `COc1cc(C(=O)O)cc(O)c1CC1=CCCCC1` [Compound 15a]: the IC50 in experiment [1] (setting [5]) amounted to 820 µM; in experiment [4] (setting [6]), 700 µM; in experiment [4] (setting [7]), 400 µM.
For the compound `COc1cc(C(=O)O)cc2c1CC1(CCCCC1)O2` [Compound 30a], the IC50 in experiment [1] (setting [5]) was 530 µM.
Consider `O=C(O)c1cc(O)c2c(c1)OC1(CCCCC1)C2` [Compound 31a], for which the IC50 in experiment [1] (setting [5]) and in experiment [1] (setting [8]) was 1450 µM throughout.
Turning to `CCOc1cc(C(=O)O)cc2c1CC1(CCCCC1)O2` [Compound 44b, 6-CARBOXYLATE-4-ETHOXY-SPIRO [BENZOFURAN-2(3H)-CYCLOHEXANE] SODIUM SALT], in experiment [1] (setting [8]), the IC50 stood at 580 µM.
Still for that read-out and setting: the same measure for `O=C(O)c1cc(OCc2ccccc2)c2c(c1)OC1(CCCCC1)C2` [Compound 55a, 4-BENZYLOXY-6-CARBOXYLSPIRO[BENZOFURAN-2(3H)-CYCLOHEXANE]]: 2530 µM.
Still for that read-out and setting: the same measure for `CCCCOc1cc(C(=O)O)cc2c1CC1(CCCCC1)O2` [Compound 55b, 4-N-BUTYLOXY-6-CARBOXYLSPIRO[BENZOFURAN-2(3H)-CYCLOHEXANE]]: 430 µM.
For the compound `O=C(O)c1cc(Oc2ccccc2)c2c(c1)OC1(CCCCC1)C2` [Compound 55c, 6-CARBOXYL-4-PHENOXYSPIRO[BENZOFURAN-2(3H)-CYCLOHEXANE]], the “effectiveness in inhibiting complement-mediated hemolysis compared with K76COOH” value in experiment [1] is “more effective”. Also, the IC50 in experiment [1] (setting [8]) is 280 µM.
For `O=C(O)c1cc(OCCO)c2c(c1)OC1(CCCCC1)C2` [Compound 55d, 6-CARBOXYL-4-(2'-HYDROXYETHYLOXYSPIRO[BENZOFURAN-2(3H)-CYCLOHEXANE]], in experiment [1] (setting [8]), the IC50 was over 2800 µM.
`O=C(O)c1cc(Oc2ccc([N+](=O)[O-])cc2)c2c(c1)OC1(CCCCC1)C2` [Compound 55e, 6-CARBOXYL-4-P-NITROPHENOXYSPIRO [BENZOFURAN-2(3H)-CYCLOHEXANE]]: the “effectiveness in inhibiting complement-mediated hemolysis compared with K76COOH” value in experiment [1] is reported as “more effective”. Also, the IC50 in experiment [1] (setting [8]) came to 305 µM.
On to `O=C(O)c1ccc2c(c1)OC1(CCCCC1)C2` [Compound 55g, 6-CARBOXYLSPIRO[BENZOFURAN-2(3H)-CYCLOHEXANE]], for which, in experiment [1] (setting [8]), the IC50 came to 2320 µM.
Regarding `Nc1ccc(Oc2cc(C(=O)O)cc3c2CC2(CCCCC2)O3)cc1` [Compound 55h, 4p-aminophenoxy-carboxyspiro[benzofuran2(3H)-cyclohexane], in experiment [1], the “effectiveness in inhibiting complement-mediated hemolysis compared with K76COOH” value is “more effective”. In addition, in experiment [1] (setting [8]), the IC50 was 320 µM.
For `O=C(O)c1ccc(Oc2cc(C(=O)O)cc3c2CC2(CCCCC2)O3)cc1` [Compound 55i, 6-CARBOXYL-4-P-CARBOXYLPHENOXYSPIRO[BENZOFURAN-2(3H)-CYCLOHEXANE]], the IC50 in experiment [1] (setting [8]) came out at 1450 µM.
Take `COc1cc(C=O)c(C(=O)O)c2c1CC1(CCCCC1)O2` [Compound 62, 7-CARBOXY-6-FORMYL-4-METHOXY PIRO[BENXOFURAN-2 (DH)-CYCLOHEXANE]: in experiment [1] (setting [9]), the IC50 turned out to be 1670 µM.
The same measure, in the same setting: the same measure for `COc1cc(C(=O)O)c(C(=O)O)c2c1CC1(CCCCC1)O2` [Compound 66, 6,7-DICARBOXYL-4-METHOXYSPIRO [BENZOFURAN-2(3H)-CYCLOHEXANE]]: 800 µM.
